What is called IC50 is the concentration at which inhibition is half-maximal. A high value points to weaker potency in that assay. As a reminder, the AUC(0-inf) is total exposure, with the tail of the curve extrapolated. What is called Cmax is the highest concentration seen after dosing. One may read the Tmax as the time from dosing to the highest level. By half-life is commonly meant the time needed for the level to fall by half in the phase considered. A higher half-life goes with slow decline.

recombinant CYP4A11 (rCYP4A11), sequence (Q02928 5-519): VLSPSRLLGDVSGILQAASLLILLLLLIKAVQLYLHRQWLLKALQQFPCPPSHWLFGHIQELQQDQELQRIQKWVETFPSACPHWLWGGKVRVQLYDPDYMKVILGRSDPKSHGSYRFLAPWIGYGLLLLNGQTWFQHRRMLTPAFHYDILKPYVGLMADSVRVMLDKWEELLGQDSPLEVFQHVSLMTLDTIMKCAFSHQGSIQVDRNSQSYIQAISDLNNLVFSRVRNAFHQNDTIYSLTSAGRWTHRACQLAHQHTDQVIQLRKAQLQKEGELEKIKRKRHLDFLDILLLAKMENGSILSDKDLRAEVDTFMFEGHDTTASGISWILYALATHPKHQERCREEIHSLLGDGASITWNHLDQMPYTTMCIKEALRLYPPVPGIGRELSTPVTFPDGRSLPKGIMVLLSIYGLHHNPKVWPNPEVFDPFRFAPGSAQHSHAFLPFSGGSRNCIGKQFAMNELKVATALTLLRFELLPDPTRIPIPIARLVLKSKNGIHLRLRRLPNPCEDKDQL
recombinant CYP4F2 (rCYP4F2), sequence (P78329 5-520): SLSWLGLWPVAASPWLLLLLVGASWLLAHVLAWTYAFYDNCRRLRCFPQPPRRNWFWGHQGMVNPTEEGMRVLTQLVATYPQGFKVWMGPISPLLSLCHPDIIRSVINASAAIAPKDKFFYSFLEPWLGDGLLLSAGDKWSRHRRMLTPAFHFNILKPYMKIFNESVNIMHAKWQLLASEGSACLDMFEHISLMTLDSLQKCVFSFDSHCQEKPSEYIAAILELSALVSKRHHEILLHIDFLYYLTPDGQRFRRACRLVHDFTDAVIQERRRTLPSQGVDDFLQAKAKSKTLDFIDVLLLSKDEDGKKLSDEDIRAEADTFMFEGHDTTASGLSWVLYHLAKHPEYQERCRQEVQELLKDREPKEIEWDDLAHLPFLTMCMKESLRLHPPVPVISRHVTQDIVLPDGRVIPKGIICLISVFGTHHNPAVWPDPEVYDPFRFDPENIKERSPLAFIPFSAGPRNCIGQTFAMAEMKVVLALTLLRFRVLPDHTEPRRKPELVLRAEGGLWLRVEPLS

For one series, the system named is CYP enzymes in human liver microsomes (HLM). The series can be described thus: Inhibition of 20-HETE production in human liver microsomes (HLM). In kind it is biochemical.
Details: not given
A digest of the protocol:
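LC-MS/MS read-out of 20-HETE formation, expressed as activity relative to no-inhibitor control and fitted to a Hill equation for IC50; percent inhibition also given at 1000, 500 or 100 nM. Enzyme sources: recombinant CYP4F2, recombinant CYP4A11, or human or mouse liver microsomes. Each is combined with compound and substrate (400 μM solution) and warmed 10 min at 37 °C, then incubated 25 min at 37 °C after adding NADPH (6 mM solution).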
(Liver microsomes are vesicles of endoplasmic reticulum, rich in cytochrome P450 enzymes.)
As to `O=C(Nc1ccc2occc2c1)C1CCN(c2ccc(-c3cn[nH]c3)cc2)CC1` [Compound 62, 1-(4-(1H-pyrazol-4-yl)phenyl)-N-(benzofuran-5-yl)piperidine-4-carboxamide], the IC50 was found to be 19.6 nM.
On the same count and under the same terms, as for `O=C(Nc1ccc2ccccc2c1)C1CCN(c2ccc(-c3cn[nH]c3)cc2)CC1` [Compound 64, 1-(4-(1H-pyrazol-4-yl)phenyl)-N-(naphthalen-2-yl)piperidine-4-carboxamide], the figure is 20 nM.

Still in this series, the particulars now being: 500 nM.
Regarding `O=C(Nc1ccc2occc2c1)C1CCN(c2ccc(-c3cn[nH]c3)cc2)CC1` [Compound 62, 1-(4-(1H-pyrazol-4-yl)phenyl)-N-(benzofuran-5-yl)piperidine-4-carboxamide], the “HLM (% inh @ 500 nM)” value amounted to 85.05%.
The same measure, in the same setting: as for `O=C(Nc1ccc2ccccc2c1)C1CCN(c2ccc(-c3cn[nH]c3)cc2)CC1` [Compound 64, 1-(4-(1H-pyrazol-4-yl)phenyl)-N-(naphthalen-2-yl)piperidine-4-carboxamide], the figure is 81.86%; as for `O=C(C1CCN(c2ccc(-c3cn[nH]c3)cc2)CC1)N1Cc2ccccc2C1` [Compound 66, (1-(4-(1H-pyrazol-4-yl)phenyl)piperidin-4-yl)(isoindolin-2-yl) methanone], 69.53%.
Same read-out and setting: for `O=C1CCCN1CC1CCN(c2ccc(-c3cn[nH]c3)cc2)C1` (stereo not drawn) [Compound 74, 1-((1-(4-(1H-pyrazol-4-yl)phenyl)pyrrolidin-3-yl)methyl)pyrrolidin-2-one] the value was 72.44%.

Another series concerns the target recombinant CYP4F2 (rCYP4F2) (Homo sapiens (Human), UniProt P78329). In words: Inhibition of 20-HETE production by recombinant CYP4F2. In kind it is biochemical. The settings on record: read-out: rCYP4F2 (% inh @ 100 nM). As for the experimental part:
(§1) Experimental principle: The inhibitory activity of 20-HETE production is evaluated by testing the inhibitory effects of the compound on human liver microsomes (HLM), rat liver microsomes (RLM), mouse liver microsomes (MLM), or […] CYP4 subtype enzymes (CYP4F2). This assay employs HLM, RLM, or MLM along with recombinant CYP4F2 (rCYP4F2) and recombinant CYP4A11 (rCYP4A11), which are […] CYP4 subtype enzymes, to detect the effects of the test compound at different concentrations on the metabolic rate of enzyme-specific substrates, to determine the inhibitory effects of the test compound on CYP enzymes in HLM, RLM, or MLM.
(§2) Experimental methods: Dissolve the test compound in DMSO, and subsequently dilute it with an acetonitrile and DMSO mixture (3:1). Add 2 μl of varying concentrations of the test compound and 100 μl of potassium phosphate buffer containing either liver microsomes or recombinant enzymes to a 96-well plate. After mixing well, transfer 30 μl to another well (in duplicate), add 15 μl of 400 μM substrate solution, and mix well again. Preheat at 37° C. for 10 minutes, and then add 15 μl of 6 mM NADPH and incubate at 37° C. for 25 minutes. After 25 minutes, add 160 μl of acetonitrile solution (containing 0.1 μg/ml internal standard) to stop the reaction. Mix well, centrifuge at 3500 g for 15 minutes, and then analyze the supernatant using LC-MS/MS.
(§3) Plot the compound concentration on the x-axis and the inhibition rate on the y-axis to draw the curve. Use GraphPad Prism 5 software to fit the curve and calculate the IC50. The formula is Y=Bottom+(Top−Bottom)/(1+10^((Log IC50−X)×HillSlope)). X represents the logarithmic concentration of the inhibitor, and Y represents the relative enzyme activity at a given inhibitor concentration (relative to the condition without the inhibitor).
(§4) Calculate the inhibition percentages at concentrations of 1000 nM, 500 nM, or 100 nM as well as the half-maximal inhibitory concentration (IC50) of the test compound from the above experiment.
Turning to `O=C(Nc1ccc2occc2c1)C1CCN(c2ccc(-c3cn[nH]c3)cc2)CC1` [Compound 62, 1-(4-(1H-pyrazol-4-yl)phenyl)-N-(benzofuran-5-yl)piperidine-4-carboxamide], the inhibition at 0.1 µM was found to be 79.2%.
Turning to `O=C(Nc1ccc2ccccc2c1)C1CCN(c2ccc(-c3cn[nH]c3)cc2)CC1` [Compound 64, 1-(4-(1H-pyrazol-4-yl)phenyl)-N-(naphthalen-2-yl)piperidine-4-carboxamide], the inhibition at 0.1 µM is 73.8%.
As for `O=C(C1CCN(c2ccc(-c3cn[nH]c3)cc2)CC1)N1Cc2ccccc2C1` [Compound 66, (1-(4-(1H-pyrazol-4-yl)phenyl)piperidin-4-yl)(isoindolin-2-yl) methanone], the inhibition at 0.1 µM worked out at 70.5%.
Regarding `O=C1CCCN1CC1CCN(c2ccc(-c3cn[nH]c3)cc2)C1` (stereo not drawn) [Compound 74, 1-((1-(4-(1H-pyrazol-4-yl)phenyl)pyrrolidin-3-yl)methyl)pyrrolidin-2-one], the inhibition at 0.1 µM stood at 52.8%.

For another series, the target named is recombinant CYP4A11 (rCYP4A11) (Homo sapiens (Human), UniProt Q02928). The series can be described thus: Inhibition of 20-HETE production by recombinant CYP4A11. It is filed as biochemical. Particulars: read-out: rCYP4A11 (% inh @ 100 nM). As for the experimental part:
as §1, §2, §3, §4
In the case of `O=C(Nc1ccc2occc2c1)C1CCN(c2ccc(-c3cn[nH]c3)cc2)CC1` [Compound 62, 1-(4-(1H-pyrazol-4-yl)phenyl)-N-(benzofuran-5-yl)piperidine-4-carboxamide], the inhibition at 0.1 µM is 25.8%.
The same measure, in the same setting: as for `O=C(Nc1ccc2ccccc2c1)C1CCN(c2ccc(-c3cn[nH]c3)cc2)CC1` [Compound 64, 1-(4-(1H-pyrazol-4-yl)phenyl)-N-(naphthalen-2-yl)piperidine-4-carboxamide], the figure is 40.6%; as for `O=C(C1CCN(c2ccc(-c3cn[nH]c3)cc2)CC1)N1Cc2ccccc2C1` [Compound 66, (1-(4-(1H-pyrazol-4-yl)phenyl)piperidin-4-yl)(isoindolin-2-yl) methanone], 9.25%; as for `O=C1CCCN1CC1CCN(c2ccc(-c3cn[nH]c3)cc2)C1` (stereo not drawn) [Compound 74, 1-((1-(4-(1H-pyrazol-4-yl)phenyl)pyrrolidin-3-yl)methyl)pyrrolidin-2-one], 17.5%.

For the next series, the system named is CYP enzymes in rat liver microsomes (RLM). The series can be described thus: Inhibition of 20-HETE production in rat liver microsomes (RLM).
Details: not given
In kind it is biochemical. A digest of the protocol: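 Test compounds were dissolved in DMSO, diluted in acetonitrile/DMSO (3:1), and 2 μl was mixed with 100 μl potassium phosphate buffer containing rat liver microsomes in a 96-well plate. Duplicate 30 μl aliquots received 15 μl of 400 μM substrate, were preheated at 37° C. for 10 minutes, then started with 15 μl of 6 mM NADPH for 25 minutes. LC-MS/MS measured 20-HETE formation.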
In turn, `O=C(Nc1ccc2ccccc2c1)C1CCN(c2ccc(-c3cn[nH]c3)cc2)CC1` [Compound 64, 1-(4-(1H-pyrazol-4-yl)phenyl)-N-(naphthalen-2-yl)piperidine-4-carboxamide] returned an IC50 of 86.4 nM.

Still in this series, the particulars now being: 500 nM.
As to `O=C(Nc1ccc2occc2c1)C1CCN(c2ccc(-c3cn[nH]c3)cc2)CC1` [Compound 62, 1-(4-(1H-pyrazol-4-yl)phenyl)-N-(benzofuran-5-yl)piperidine-4-carboxamide], the “RLM (% inh @ 500 nM)” value came out at 50.28%.
In the case of `O=C(C1CCN(c2ccc(-c3cn[nH]c3)cc2)CC1)N1Cc2ccccc2C1` [Compound 66, (1-(4-(1H-pyrazol-4-yl)phenyl)piperidin-4-yl)(isoindolin-2-yl) methanone], the “RLM (% inh @ 500 nM)” value is 64.35%.
For the compound `O=C1CCCN1CC1CCN(c2ccc(-c3cn[nH]c3)cc2)C1` (stereo not drawn) [Compound 74, 1-((1-(4-(1H-pyrazol-4-yl)phenyl)pyrrolidin-3-yl)methyl)pyrrolidin-2-one], the “RLM (% inh @ 500 nM)” value was found to be 47.19%.

Test system in another series: not listed separately
The series can be described thus: Pharmacokinetic (PK) experiment, oral administration in rats. In kind it is in vivo, Male SD rats. Particulars: 20 mg/kg. The procedure: Male SD rats, weighing 180-250 grams, were fasted overnight before testing. The test compound was dissolved in 30% sulfobutylether-β-cyclodextrin and administered orally at a dose of 20 mg/kg. Blood was collected from the tail vein at 15 minutes, 30 minutes, and 1, 2, 4, 6, 8, and 24 hours after administration. Approximately 0.3 ml of blood was collected at each time point, placed in a centrifuge tube containing K2-EDTA, and centrifuged (2000 g for 10 minutes at 4° C.) to take the plasma, which was then stored in an ultra-low temperature freezer at −70° C. or below. A 50 μL plasma sample was mixed with 135 μL of acetonitrile (containing 0.5 μg/mL internal standard) and vortexed for protein precipitation. After centrifugation, the supernatant was taken for LC-MS/MS analysis.
Take `O=C(C1CCN(c2ccc(-c3cn[nH]c3)cc2)CC1)N1Cc2ccccc2C1` [Compound 66, (1-(4-(1H-pyrazol-4-yl)phenyl)piperidin-4-yl)(isoindolin-2-yl) methanone]: the “absorption and blood exposure after oral administration (in words)” value is “well absorbed and exhibit high blood exposure”.

Still in this series, the particulars now being: male, SD, rat, plasma, 20 mg/kg.
For `O=C(C1CCN(c2ccc(-c3cn[nH]c3)cc2)CC1)N1Cc2ccccc2C1` [Compound 66, (1-(4-(1H-pyrazol-4-yl)phenyl)piperidin-4-yl)(isoindolin-2-yl) methanone], the AUC(0-inf) came to 486 µg·h/mL, the Cmax worked out at 26.8 µg/mL, the Tmax worked out at 3.33 h and the half-life was 12.5 h.

Still in this series, the particulars now being: male, SD, rat, plasma, 20 mg/kg, read-out: AUC0-24.
Regarding `O=C(C1CCN(c2ccc(-c3cn[nH]c3)cc2)CC1)N1Cc2ccccc2C1` [Compound 66, (1-(4-(1H-pyrazol-4-yl)phenyl)piperidin-4-yl)(isoindolin-2-yl) methanone], the AUC(0-t) amounted to 364 µg·h/mL.

The record behind these values is patent US20250034116A1, “1,4-DIHETEROCYCLIC SUBSTITUTED AROMATIC RING OR AROMATIC HETEROCYCLIC COMPOUND AND USE THEREOF” (BeBetter Med Inc., priority 2022, published 2025).
